Measurements from PMC10408569, “Recruitment of hexahydroquinoline as anticancer scaffold targeting inhibition of wild and mutants EGFR (EGFR^WT, EGFR^T790M, and EGFR^L858R)” (Journal of Enzyme Inhibition and Medicinal Chemistry, 2023).

Columns and labels:
NCI-H226 = experiment: NCI-60 anticancer screening (SRB); format: cell-based; conditions: Homo sapiens; NCI-H226, NSC lung cancer; one dose 10 μM; read-out: Growth Inhibition Percentage (GI %)
EGFR^T790M = EGFR^T790M (Homo sapiens, UniProt P00533, T790M); experiment: biochemical
Chain of EGFR^T790M (P00533 25-1210 T790M): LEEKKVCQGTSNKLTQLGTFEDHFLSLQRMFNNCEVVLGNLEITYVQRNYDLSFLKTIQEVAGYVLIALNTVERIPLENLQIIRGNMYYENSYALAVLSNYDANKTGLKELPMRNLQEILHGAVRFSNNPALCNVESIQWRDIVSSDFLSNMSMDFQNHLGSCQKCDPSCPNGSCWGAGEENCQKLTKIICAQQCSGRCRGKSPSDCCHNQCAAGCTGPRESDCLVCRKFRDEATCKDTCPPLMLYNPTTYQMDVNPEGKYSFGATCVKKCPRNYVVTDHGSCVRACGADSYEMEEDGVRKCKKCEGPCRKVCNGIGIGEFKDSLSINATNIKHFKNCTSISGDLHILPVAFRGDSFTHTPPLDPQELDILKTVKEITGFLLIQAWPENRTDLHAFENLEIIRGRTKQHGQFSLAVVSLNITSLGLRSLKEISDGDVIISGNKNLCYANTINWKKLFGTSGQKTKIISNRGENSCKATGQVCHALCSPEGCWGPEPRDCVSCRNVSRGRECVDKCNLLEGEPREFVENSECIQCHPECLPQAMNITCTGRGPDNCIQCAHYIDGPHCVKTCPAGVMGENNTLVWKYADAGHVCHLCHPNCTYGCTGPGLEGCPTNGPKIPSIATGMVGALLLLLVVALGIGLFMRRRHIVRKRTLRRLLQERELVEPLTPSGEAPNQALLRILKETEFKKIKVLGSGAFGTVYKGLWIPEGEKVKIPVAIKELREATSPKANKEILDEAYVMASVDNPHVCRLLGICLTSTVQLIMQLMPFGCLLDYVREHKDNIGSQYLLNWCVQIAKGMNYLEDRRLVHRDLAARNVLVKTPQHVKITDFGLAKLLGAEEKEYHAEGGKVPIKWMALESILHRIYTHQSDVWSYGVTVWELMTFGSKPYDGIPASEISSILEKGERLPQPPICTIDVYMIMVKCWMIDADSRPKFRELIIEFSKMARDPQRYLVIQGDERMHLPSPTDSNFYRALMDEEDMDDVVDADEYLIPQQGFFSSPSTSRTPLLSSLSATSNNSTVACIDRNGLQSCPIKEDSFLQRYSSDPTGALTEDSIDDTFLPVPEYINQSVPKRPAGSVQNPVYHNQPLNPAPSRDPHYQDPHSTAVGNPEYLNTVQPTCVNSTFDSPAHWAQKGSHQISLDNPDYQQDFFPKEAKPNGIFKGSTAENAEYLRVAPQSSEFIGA

UACC-257 = experiment: NCI-60 anticancer screening (SRB); format: cell-based; conditions: Homo sapiens; UACC-257, melanoma; one dose 10 μM; read-out: Growth Inhibition Percentage (GI %)
OVCAR-3 = experiment: NCI-60 anticancer screening (SRB); format: cell-based; conditions: Homo sapiens; OVCAR-3, ovarian cancer; one dose 10 μM; read-out: Growth Inhibition Percentage (GI %)
OVCAR-5 = experiment: NCI-60 anticancer screening (SRB); format: cell-based; conditions: Homo sapiens; OVCAR-5, ovarian cancer; one dose 10 μM; read-out: Growth Inhibition Percentage (GI %)
CCRF-CEM = experiment: NCI-60 anticancer screening (SRB); format: cell-based; conditions: Homo sapiens, leukemia, one dose 10 μM, read-out: Growth Inhibition Percentage (GI %)
UO-31 = experiment: NCI-60 anticancer screening (SRB); format: cell-based; conditions: Homo sapiens; UO-31, renal cancer; one dose 10 μM; read-out: Growth Inhibition Percentage (GI %)
SW-620 = experiment: NCI-60 anticancer screening (SRB); format: cell-based; conditions: Homo sapiens; SW-620, colon cancer; one dose 10 μM; read-out: Growth Inhibition Percentage (GI %)
U251 = experiment: NCI-60 anticancer screening (SRB); format: cell-based; conditions: Homo sapiens, U-251; U251, CNS cancer; one dose 10 μM; read-out: Growth Inhibition Percentage (GI %)
PC-3 = experiment: NCI-60 anticancer screening (SRB); format: cell-based; conditions: Homo sapiens; PC-3, prostate cancer; one dose 10 μM; read-out: Growth Inhibition Percentage (GI %)
SR = experiment: NCI-60 anticancer screening (SRB); format: cell-based; conditions: Homo sapiens, leukemia, one dose 10 μM, read-out: Growth Inhibition Percentage (GI %)
LOX IMVI = experiment: NCI-60 anticancer screening (SRB); format: cell-based; conditions: Homo sapiens, melanoma, one dose 10 μM, read-out: Growth Inhibition Percentage (GI %)
MCF7 = experiment: NCI-60 anticancer screening (SRB); format: cell-based; conditions: Homo sapiens; MCF7, breast cancer; one dose 10 μM; read-out: Growth Inhibition Percentage (GI %)
EGFR^L858R = EGFR^L858R (Homo sapiens, UniProt P00533, L858R); experiment: biochemical
Chain of EGFR^L858R (P00533 25-1210 L858R): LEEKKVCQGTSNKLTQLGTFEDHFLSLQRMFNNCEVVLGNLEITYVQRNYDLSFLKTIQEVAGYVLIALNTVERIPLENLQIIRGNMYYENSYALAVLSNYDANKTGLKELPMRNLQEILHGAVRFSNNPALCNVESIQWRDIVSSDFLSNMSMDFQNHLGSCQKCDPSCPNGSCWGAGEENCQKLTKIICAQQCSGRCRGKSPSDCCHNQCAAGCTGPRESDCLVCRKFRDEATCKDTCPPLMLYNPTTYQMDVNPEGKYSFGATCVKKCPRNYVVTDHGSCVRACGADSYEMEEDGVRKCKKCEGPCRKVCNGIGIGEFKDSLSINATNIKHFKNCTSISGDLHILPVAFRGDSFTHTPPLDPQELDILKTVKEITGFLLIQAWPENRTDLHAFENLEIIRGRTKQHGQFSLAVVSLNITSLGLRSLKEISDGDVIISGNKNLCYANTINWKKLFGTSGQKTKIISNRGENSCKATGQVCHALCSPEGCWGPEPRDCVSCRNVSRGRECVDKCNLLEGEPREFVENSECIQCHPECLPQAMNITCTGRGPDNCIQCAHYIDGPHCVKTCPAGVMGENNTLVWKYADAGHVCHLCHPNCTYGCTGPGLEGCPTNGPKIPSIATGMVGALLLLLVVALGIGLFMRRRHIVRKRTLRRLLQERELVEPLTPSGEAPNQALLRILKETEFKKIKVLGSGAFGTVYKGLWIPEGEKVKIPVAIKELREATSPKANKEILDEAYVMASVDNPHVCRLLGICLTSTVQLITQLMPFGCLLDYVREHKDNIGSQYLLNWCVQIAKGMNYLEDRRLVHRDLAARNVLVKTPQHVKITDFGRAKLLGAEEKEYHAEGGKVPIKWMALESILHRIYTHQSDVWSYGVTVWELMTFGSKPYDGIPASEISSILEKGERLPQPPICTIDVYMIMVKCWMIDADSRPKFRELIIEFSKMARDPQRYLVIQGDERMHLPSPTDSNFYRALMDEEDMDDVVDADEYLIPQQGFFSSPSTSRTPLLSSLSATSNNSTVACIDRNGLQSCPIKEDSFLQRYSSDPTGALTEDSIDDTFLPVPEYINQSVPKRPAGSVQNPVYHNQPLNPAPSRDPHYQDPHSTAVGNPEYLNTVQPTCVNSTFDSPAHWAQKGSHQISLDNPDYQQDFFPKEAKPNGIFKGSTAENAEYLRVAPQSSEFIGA

A498 = experiment: NCI-60 anticancer screening (SRB); format: cell-based; conditions: Homo sapiens; A498, renal cancer; one dose 10 μM; read-out: Growth Inhibition Percentage (GI %)
BT-549 = experiment: NCI-60 anticancer screening (SRB); format: cell-based; conditions: Homo sapiens; BT-549, breast cancer; one dose 10 μM; read-out: Growth Inhibition Percentage (GI %)
OVCAR-4 = experiment: NCI-60 anticancer screening (SRB); format: cell-based; conditions: Homo sapiens; OVCAR-4, ovarian cancer; one dose 10 μM; read-out: Growth Inhibition Percentage (GI %)
COLO 205 = experiment: NCI-60 anticancer screening (SRB); format: cell-based; conditions: Homo sapiens; COLO 205, colon cancer; one dose 10 μM; read-out: Growth Inhibition Percentage (GI %)
ACHN = experiment: NCI-60 anticancer screening (SRB); format: cell-based; conditions: Homo sapiens, renal cancer, one dose 10 μM, read-out: Growth Inhibition Percentage (GI %)
MALME-3M = experiment: NCI-60 anticancer screening (SRB); format: cell-based; conditions: Homo sapiens, melanoma, one dose 10 μM, read-out: Growth Inhibition Percentage (GI %)
K-562 = experiment: NCI-60 anticancer screening (SRB); format: cell-based; conditions: Homo sapiens, K562; K-562, leukemia; one dose 10 μM; read-out: Growth Inhibition Percentage (GI %)
SK-OV-3 = experiment: NCI-60 anticancer screening (SRB); format: cell-based; conditions: Homo sapiens; SK-OV-3, ovarian cancer; one dose 10 μM; read-out: Growth Inhibition Percentage (GI %)
IGROV1 = experiment: NCI-60 anticancer screening (SRB); format: cell-based; conditions: Homo sapiens, IGROV-1; IGROV1, ovarian cancer; one dose 10 μM; read-out: Growth Inhibition Percentage (GI %)
EGFR^WT = EGFR^WT (Homo sapiens, UniProt P00533); experiment: EGFR kinase inhibitory assay (HTRF)
Chain of EGFR^WT (P00533 25-1210): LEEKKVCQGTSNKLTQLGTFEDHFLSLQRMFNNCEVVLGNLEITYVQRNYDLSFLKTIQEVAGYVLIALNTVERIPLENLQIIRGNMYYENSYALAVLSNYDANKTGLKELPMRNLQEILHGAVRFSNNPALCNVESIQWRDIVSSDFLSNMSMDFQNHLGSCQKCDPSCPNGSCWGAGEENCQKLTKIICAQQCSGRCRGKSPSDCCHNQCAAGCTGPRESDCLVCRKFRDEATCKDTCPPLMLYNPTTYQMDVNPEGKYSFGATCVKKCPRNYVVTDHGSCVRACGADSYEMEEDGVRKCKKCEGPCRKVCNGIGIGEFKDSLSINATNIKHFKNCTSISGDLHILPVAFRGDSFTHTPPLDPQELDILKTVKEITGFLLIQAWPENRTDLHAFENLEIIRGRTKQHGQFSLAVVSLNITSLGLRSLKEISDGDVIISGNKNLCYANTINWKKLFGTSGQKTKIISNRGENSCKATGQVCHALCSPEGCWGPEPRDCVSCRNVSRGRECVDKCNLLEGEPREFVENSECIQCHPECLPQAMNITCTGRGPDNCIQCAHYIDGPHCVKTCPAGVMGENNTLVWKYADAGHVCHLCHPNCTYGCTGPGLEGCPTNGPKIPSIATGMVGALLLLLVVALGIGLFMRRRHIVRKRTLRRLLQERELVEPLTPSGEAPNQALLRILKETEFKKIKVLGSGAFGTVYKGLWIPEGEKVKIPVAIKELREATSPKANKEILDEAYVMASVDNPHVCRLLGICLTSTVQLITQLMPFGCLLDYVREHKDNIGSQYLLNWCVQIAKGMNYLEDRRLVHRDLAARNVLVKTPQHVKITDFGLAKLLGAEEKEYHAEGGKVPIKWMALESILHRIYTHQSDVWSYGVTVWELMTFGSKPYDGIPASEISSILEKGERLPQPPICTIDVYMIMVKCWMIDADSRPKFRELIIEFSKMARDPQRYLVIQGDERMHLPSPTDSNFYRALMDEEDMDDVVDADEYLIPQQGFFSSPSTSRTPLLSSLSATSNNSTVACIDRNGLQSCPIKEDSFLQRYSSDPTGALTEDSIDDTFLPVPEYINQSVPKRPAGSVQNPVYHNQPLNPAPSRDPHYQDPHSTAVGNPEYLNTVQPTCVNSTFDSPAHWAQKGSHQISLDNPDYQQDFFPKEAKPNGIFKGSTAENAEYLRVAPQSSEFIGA

HCT-116 = experiment: NCI-60 anticancer screening (SRB); format: cell-based; conditions: Homo sapiens; HCT-116, colon cancer; one dose 10 μM; read-out: Growth Inhibition Percentage (GI %)
SK-MEL-2 = experiment: NCI-60 anticancer screening (SRB); format: cell-based; conditions: Homo sapiens; SK-MEL-2, melanoma; one dose 10 μM; read-out: Growth Inhibition Percentage (GI %)
OVCAR-8 = experiment: NCI-60 anticancer screening (SRB); format: cell-based; conditions: Homo sapiens; OVCAR-8, ovarian cancer; one dose 10 μM; read-out: Growth Inhibition Percentage (GI %)
MOLT-4 = experiment: NCI-60 anticancer screening (SRB); format: cell-based; conditions: Homo sapiens; MOLT-4, leukemia; one dose 10 μM; read-out: Growth Inhibition Percentage (GI %)
MDA-MB-468 = experiment: NCI-60 anticancer screening (SRB); format: cell-based; conditions: Homo sapiens; MDA-MB-468, breast cancer; one dose 10 μM; read-out: Growth Inhibition Percentage (GI %)
HS 578T = experiment: NCI-60 anticancer screening (SRB); format: cell-based; conditions: Homo sapiens; HS 578T, breast cancer; one dose 10 μM; read-out: Growth Inhibition Percentage (GI %)
HOP-92 = experiment: NCI-60 anticancer screening (SRB); format: cell-based; conditions: Homo sapiens; HOP-92, NSC lung cancer; one dose 10 μM; read-out: Growth Inhibition Percentage (GI %)

Row | SMILES | inhibition at 10 µM (NCI-H226) [%] | IC50 (EGFR^T790M) [nM] | inhibition at 10 µM (UACC-257) [%] | inhibition at 10 µM (OVCAR-3) [%] | inhibition at 10 µM (OVCAR-5) [%] | inhibition at 10 µM (CCRF-CEM) [%] | inhibition at 10 µM (UO-31) [%] | inhibition at 10 µM (SW-620) [%] | inhibition at 10 µM (U251) [%] | inhibition at 10 µM (PC-3) [%] | inhibition at 10 µM (SR) [%] | inhibition at 10 µM (LOX IMVI) [%] | inhibition at 10 µM (MCF7) [%] | IC50 (EGFR^L858R) [nM] | inhibition at 10 µM (A498) [%] | inhibition at 10 µM (BT-549) [%] | inhibition at 10 µM (OVCAR-4) [%] | inhibition at 10 µM (COLO 205) [%] | inhibition at 10 µM (ACHN) [%] | melting point [°C] | also measured
1 | CCOC(=O)C1=C(N)N(c2ccccc2)C2=C(C(=O)CC(C)(C)C2)C1c1cccc(Cl)c1Cl (racemic) [10a, (±)-Ethyl 2-amino-4–(2,3-dichlorophenyl)-7,7-dimethyl-5-oxo-1-phenyl-1,4,5,6,7,8-hexahydroquinoline-3-carboxylate] | 60 | 532 ± 4 | 15 | 13 | 12 | 45 | 25 | < 10 | 45 | 65 | 44 | 22 | 40 | 490 ± 3 | < 10 | 31 | 34 | 19 | 42 | 235 to 237 | inhibition at 10 µM (MALME-3M): 19%; inhibition at 10 µM (K-562): 40%; inhibition at 10 µM (SK-OV-3): 18%; inhibition at 10 µM (IGROV1): 16%; IC50 (EGFR^WT): 145 ± 30 nM; inhibition at 10 µM (HCT-116): 60%; inhibition at 10 µM (SK-MEL-2): 41%; inhibition at 10 µM (OVCAR-8): 41%; inhibition at 10 µM (MOLT-4): 60%; inhibition at 10 µM (MDA-MB-468): 52%; inhibition at 10 µM (HS 578T): < 10%; inhibition at 10 µM (HOP-92): 101%
2 | CCOC(=O)C1=C(N)N(c2ccccc2)C2=C(C(=O)CC(C)(C)C2)C1c1ccccc1Br (racemic) [6d, (±)-Ethyl 2-amino-4–(2-bromophenyl)-7,7-dimethyl-5-oxo-1-phenyl-1,4,5,6,7,8-hexahydroquinoline-3-carboxylate] | 11 | 410 ± 2 | < 10 | < 10 | < 10 | 20 | 14 | < 10 | < 10 | 33 | 14 | 12 | 33 | 250 ± 5 | < 10 | < 10 | 12 | < 10 | 11 | 220 to 222 | inhibition at 10 µM (MALME-3M): < 10%; inhibition at 10 µM (K-562): 20%; inhibition at 10 µM (SK-OV-3): < 10%; inhibition at 10 µM (IGROV1): < 10%; IC50 (EGFR^WT): 99 ± 20 nM; inhibition at 10 µM (HCT-116): 21%; inhibition at 10 µM (SK-MEL-2): 23%; inhibition at 10 µM (OVCAR-8): < 10%; inhibition at 10 µM (MOLT-4): 25%; inhibition at 10 µM (MDA-MB-468): 30%; inhibition at 10 µM (HS 578T): < 10%; inhibition at 10 µM (HOP-92): 27%
